PMC12797155 (ACS Pharmacology & Translational Science, 2025)
Where “and” joins values, the source holds several entries; their conditions need not be identical. Equal entries are not always repeated.

Legend:
PAR4 [1] = experiment: Human platelet flow cytometry assay, PAR4 activation (α-thrombin + vorapaxar); format: cell-based; conditions: alpha-thrombin flow cytometry assay, human platelets; PAR4 vs PAR1
From the text: (§1) Same as described previously.
(§2) In the flow cytometry experiments, thrombin activates PAR4 on human platelets. […] In the flow cytometry assay, human platelets are stimulated with thrombin in the presence of either a PAR4 antagonist (BMS-3) or a PAR1 antagonist (Vorapaxar). This determines the IC50 of the test compound against PAR1 and PAR4 activation.

PAR4 [2] = molecular target: T1, PAR4 (Homo sapiens, UniProt Q96RI0); experiment: as above; format: cell-based; conditions: human platelets, α-thrombin + vorapaxar; N = 3
T1 sequence (Q96RI0 48-385): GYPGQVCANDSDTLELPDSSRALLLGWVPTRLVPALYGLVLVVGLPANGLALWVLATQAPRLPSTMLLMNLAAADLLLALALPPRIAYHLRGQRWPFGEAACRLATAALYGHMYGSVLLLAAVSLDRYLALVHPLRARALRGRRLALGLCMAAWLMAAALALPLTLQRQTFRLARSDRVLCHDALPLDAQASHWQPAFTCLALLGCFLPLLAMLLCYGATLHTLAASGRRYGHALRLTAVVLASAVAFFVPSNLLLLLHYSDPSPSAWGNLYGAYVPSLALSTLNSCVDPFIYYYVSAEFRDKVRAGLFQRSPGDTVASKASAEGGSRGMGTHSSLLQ
From the text: as §1, §2

thrombin = molecular target: T2, thrombin (Homo sapiens, UniProt P00734); experiment: Michaelis-Menten enzyme kinetic analysis of thrombin in the presence of PAR4 antagonists; format: biochemical; set-up: unit not given here; conditions: thrombin in the presence of PAR4 antagonist
T2 construct: Alpha-thrombin was ordered from Enzyme Research Laboratories; purchased Enzyme Research Laboratories (South Bend, IN)
Method: (§3) Chromogenic substrate, S-2238, was ordered from DiaPharma (West Chester, OH). Alpha-thrombin was ordered from Enzyme Research Laboratories (South Bend, IN). White, round, clear-bottom 96-well plates were used to run the screen. The plate was read using a BioTek Neo plate reader every minute for 60 min at a wavelength of 405 nm. The substrate control wells were subtracted from the raw counts, and the data was normalized to the thrombin enzyme control wells as a percentage. The percentages were graphed in GraphPad Prism.
To also characterize what type of inhibition was occurring with these compounds, we performed Michaelis–Menten enzyme kinetic analysis. […] This is not a surprising finding, as thrombin is believed to interact with PAR4 only at the active cleft of thrombin. PAR4 lacks the hirudin-like binding domain that PAR1 has, which enables PAR1 to have a higher affinity to thrombin.
2 Thrombin inhibition characterization of PAR4 antagonists. A) Michaelis–Menten plot depicting thrombin enzymatic activity in the presence of various PAR4 antagonists. B) Lineweaver–Burk plot of the Michaelis–Menten plot.

alpha thrombin = molecular target: T3, alpha thrombin (Homo sapiens, UniProt P00734); experiment: Chromogenic thrombin activity assay with substrate S-2238; format: biochemical; conditions: for inhibition at 0.5 µM: read-out: inhibition of thrombin; for IC50: thrombin activity assay, N = 3, read-out: IC50 against thrombin (S-2238 Thrombin Kinetic Assay)
T3 construct: Alpha-thrombin was ordered from Enzyme Research Laboratories; purchased Enzyme Research Laboratories (South Bend, IN)
Method: as §3, with “Prism. To investigate thrombin inhibition, we utilized a chromogenic assay with a thrombin substrate, S-2238. Thrombin activity was measured by the production of a visible color change to substrate S-2238. Each assay run included a substrate control, where just substrate was added to the well without thrombin enzyme, an enzyme control (EC), which consisted of thrombin without any inhibitor present, and an inhibitor control (IC), which contained a known thrombin inhibitor, Argatroban.” for “Prism.”

Row | Molecule | Vmax (thrombin) | preference for PAR4 over PAR1 (PAR4 [1]) | IC50 (PAR4 [2]) | inhibition at 0.5 µM (alpha thrombin) | IC50 (alpha thrombin)
1 | CC1CNc2c(cccc2S(=O)(=O)N[C@@H](CCCNC(=N)N)C(=O)N2CC[C@@H](C)C[C@@H]2C(=O)O)C1 (stereo partly drawn) [Argatroban, reference compound] | – | no preference for PAR4 over PAR1 | 65.2 nM | – | –
2 | Cn1nc(C(=O)Nc2n[nH]c(-c3c(F)cccc3F)n2)cc1C1CC1 [Compound 12] | – | – | ~149 nM | ~70% | ~71 nM and 70.6 nM
3 | O=C(Nc1n[nH]c(-c2ccc(F)cc2F)n1)c1nn(-c2ccccc2)c2c1CCCC2 [Compound 31] | 0.1010 | – | ~160 nM | ~70% | ~1000 nM and 1090 nM
4 | Hirugen [reference compound] | – | no preference for PAR4 over PAR1 | – | – | –

Continued, in another order:

Row | Vmax (thrombin) | Molecule | preference for PAR4 over PAR1 (PAR4 [1]) | IC50 (PAR4 [2]) | inhibition at 0.5 µM (alpha thrombin) | IC50 (alpha thrombin)
5 | 0.08856 | COc1ccc2cc(-c3cn4nc(SC)sc4n3)oc2c1 [Compound 6PMJ] | – | – | – | –
6 | 0.08588 | Cc1nc(NC(=O)c2cc(C(=O)OC(C)(C)C)n(-c3ccccc3)n2)n[nH]1 [Compound 7] | – | 6600 nM | – | –
7 | 0.0849 | Cc1cc(C(=O)Nc2nc(-c3cccc(OC(F)F)c3)n[nH]2)nn1-c1ccccc1 [Compound 9] | – | – | – | –
8 | 0.09616 | COc1cccc(-c2nc(NC(=O)c3nn(-c4ccccc4)c4c3CCCC4)n[nH]2)c1 [Compound 32] | – | – | – | –
